Data: patent US9375000B2, “Pesticidal arylpyrrolidines” (Bayer Intellectual Property GmbH, priority 2011, dated 2016)

Tests used:
Format in all cases: in vivo
[1] = test system: Larvae of Spodoptera litura; assay: Larvae of Spodoptera litura, method using artificial feeds; settings: artificial feed, after 7 days
How it was run: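 Compound formulated in dimethylformamide with polyoxyethylene alkyl phenyl ether emulsifier, water-diluted and poured onto artificial diet. Five 3rd-instar Spodoptera litura larvae per cup, held at 25° C and 50-60% humidity. Mortality after 7 days expressed as pesticidal ratio.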

Thrips palmi = Thrips palmi spray test (THRIPL); settings: after 6 days
Description: Unless not mentioned otherwise, the test solutions were prepared as follows:
Solvent: 3 parts by weight Dimethylformamide
Emulsifier: 1 part by weight Polyoxyethylene alkyl phenyl ether
In order to make an appropriate formulation of an active compound, 1 part by weight of the active compound is mixed with the above mentioned amount of solvent and emulsifier and the mixture is diluted with water to a prescribed concentration. Ammonium salt or ammonium salt and penetration enhancer in a dosage of 1000 ppm are added to the desired concentration if necessary.
The compound solutions are sprayed to a cucumber seedling (Cucumis sativus). After drying, the treated plant is placed in a plastic stand. About 100 thrips-eggs (Thrips palmi) on a piece of filter paper are attached to the plant and covered with a cage to keep 100% humidity. The plant is kept in a room at 23° C. After 6 days activity in % is evaluated by feeding damage degree. An insecticidal activity of 100 means that there was no feeding damage, whereas an insecticidal activity of 0% means that there is no difference to the untreated control.

[2] = test system: Cucurbit Leaf Beetle (Aulacophora femoralis); assay: Cucurbit leaf beetle (Aulacophora femoralis) cucumber leaf dip test; settings: after 7 days
How it was run: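 Cucumber leaves dipped in compound formulated with DMF and polyoxyethylene alkyl phenyl ether, diluted in water, with ammonium salt or ammonium salt plus penetration enhancer at 1000 ppm added if necessary; dried leaves placed on sterilized soil with five second-instar larvae. Kept at 25° C; larval mortality counted after 7 days.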

[3] = test system: Two-Spotted Spider Mite (Tetranychus urticae); assay: Two-spotted spider mite (Tetranychus urticae) spray test on kidney bean; settings: after 7 days
How it was run: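 Kidney bean plants at the two-leaf stage carried 50-100 adult mites and were sprayed one day later with compound in DMF/polyoxyethylene alkyl phenyl ether diluted in water. Ammonium salt and penetration enhancer at 1000 ppm were added if needed. Acaricidal activity (% mites killed) was scored after 7 days in a greenhouse.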

[4] = active compound concentration 4 ppm
[5] = active compound concentration 20 ppm
[6] = active compound concentration 100 ppm

| Compound | insecticidal activity (pesticidal ratio) [1, 4] [%] | insecticidal activity (by feeding damage degree) (Thrips palmi; [5]) [%] | insecticidal activity [2, 4] [%] | acaricidal activity [3, 4] [%] | acaricidal activity [3, 5] [%] | insecticidal activity [2, 5] [%] | insecticidal activity (pesticidal ratio) [1, 5] [%] | insecticidal activity (by feeding damage degree) (Thrips palmi; [6]) [%] | acaricidal activity [3, 6] [%] |
| --- | --- | --- | --- | --- | --- | --- | --- | --- | --- |
| CC(=O)NCc1ccc(N2CCC(c3cc(C(F)(F)F)cc(C(F)(F)F)c3)(C(F)(F)F)C2O)cc1C(F)(F)F (mixture of isomers) [A1-56] | 100 | 98 | 100 | 100 | – | – | – | – | – |
| O=C(NCc1ccc(N2CCC(c3cc(C(F)(F)F)cc(C(F)(F)F)c3)(C(F)(F)F)C2O)cc1C(F)(F)F)C1CC1 (mixture of isomers) [A1-60] | 100 | 98 | 100 | – | 100 | – | – | – | – |
| CCC(=O)NCc1ccc(N2CCC(c3cc(Cl)cc(Cl)c3)(C(F)(F)F)C2O)cc1F (mixture of isomers) [A1-96] | – | 90 | – | – | – | 100 | – | – | – |
| CCC(=O)NCc1ccc(N2CCC(c3ccc(F)c(C(F)(F)F)c3)(C(F)(F)F)C2O)nc1C(F)(F)F (mixture of isomers) [A3-233] | 100 | 90 | 100 | – | – | 100 | 100 | – | – |
| CC(=O)NCc1ccc(N2CCC(c3cc(Cl)cc(C(F)(F)F)c3)(C(F)(F)F)C2O)nc1C(F)(F)F (mixture of isomers) [A3-265] | 100 | 90 | 100 | – | 100 | 100 | 100 | – | – |
| O=C(CC1CC1)NCc1ccc(N2CCC(c3cc(Cl)cc(C(F)(F)F)c3)(C(F)(F)F)C2O)nc1C(F)(F)F (mixture of isomers) [A3-270] | 100 | 90 | 100 | 100 | 100 | 100 | 100 | – | – |
| CS(=O)(=O)CC(=O)NCc1ccc(N2CCC(c3cccc(C(F)(F)F)c3)(C(F)(F)F)C2O)nc1C(F)(F)F (racemic) [A3-231] | 80 | 90 | 100 | 100 | 100 | 100 | – | – | – |
| CC(=O)NCc1ccc(N2CCC(c3cc(C(F)(F)F)cc(C(F)(F)F)c3)(C(F)(F)F)C2O)cc1Br (stereo not shown) [A1-216] | 100 | 90 | 100 | 90 | – | – | – | – | – |
| CCC(=O)NCc1ccc(N2CCC(c3cc(C(F)(F)F)cc(C(F)(F)F)c3)(C(F)(F)F)C2O)cc1Br (stereo not shown) [A1-217] | 100 | 90 | 100 | 100 | – | – | – | – | – |
| O=C(NCc1ccc(N2CCC(c3cc(C(F)(F)F)cc(C(F)(F)F)c3)(C(F)(F)F)C2O)cc1Br)C1CC1 (stereo not shown) [A1-220] | 100 | 90 | 100 | 100 | – | – | – | – | – |
| CCC(=O)NCc1ccc(N2CCC(c3cc(Br)cc(Br)c3)(C(F)(F)F)C2O)cc1C(F)(F)F (stereo not shown) [A1-250] | 100 | 90 | 100 | 100 | 100 | 100 | 100 | – | – |
| CCC(=O)NCc1ccc(N2CCC(c3cc(F)cc(C(F)(F)F)c3)(C(F)(F)F)C2O)cc1C(F)(F)F (stereo not shown) [A1-316] | 100 | 90 | 100 | 100 | 100 | 100 | 100 | – | – |
| O=C(NCc1ccc(N2CCC(c3cc(F)cc(C(F)(F)F)c3)(C(F)(F)F)C2O)cc1C(F)(F)F)C1CC1 (stereo not shown) [A1-319] | 100 | 90 | 100 | 100 | 100 | 100 | 100 | – | – |
| O=C(NCc1ccc(N2CCC(c3cc(Cl)c(F)c(Cl)c3F)(C(F)(F)F)C2O)cc1Br)C1CC1 (stereo not shown) [A1-433] | 100 | 90 | 100 | 100 | – | – | – | – | – |
| O=C(CC1CC1)NCc1ccc(N2CCC(c3cc(Cl)cc(Cl)c3)(C(F)(F)F)C2O)nc1C(F)(F)F (stereo not shown) [A3-6] | 100 | 90 | 100 | 100 | 100 | 100 | 100 | – | – |
| CS(=O)(=O)CC(=O)NCc1ccc(N2CCC(c3cc(Cl)cc(Cl)c3)(C(F)(F)F)C2O)nc1C(F)(F)F (stereo not shown) [A3-11] | 100 | 98 | 100 | 100 | 100 | 100 | 100 | – | – |
| CC(C)C(=O)NCc1ccc(N2CCC(c3cc(Cl)c(Cl)c(Cl)c3)(C(F)(F)F)C2O)nc1C(F)(F)F (stereo not shown) [A3-15] | 100 | 90 | – | 100 | 100 | – | 100 | – | – |
| O=C(CC1CC1)NCc1ccc(N2CCC(c3cc(Cl)c(Cl)c(Cl)c3)(C(F)(F)F)C2O)nc1C(F)(F)F (stereo not shown) [A3-17] | 100 | 90 | – | 100 | 100 | – | 100 | – | – |
| O=C(CC(F)(F)F)NCc1ccc(N2CCC(c3cc(Cl)c(Cl)c(Cl)c3)(C(F)(F)F)C2O)nc1C(F)(F)F (stereo not shown) [A3-18] | 100 | 98 | 100 | 100 | 100 | 100 | 100 | – | – |
| CS(=O)(=O)CC(=O)NCc1ccc(N2CCC(c3cc(Cl)cc(C(F)(F)F)c3)(C(F)(F)F)C2O)nc1C(F)(F)F (stereo not shown) [A3-275] | 100 | 98 | 100 | 100 | 100 | 100 | 100 | – | – |
| O=C(NCc1ccc(N2CCC(c3cc(Cl)cc(Cl)c3F)(C(F)(F)F)C2O)nc1C(F)(F)F)C1CC1 (stereo not shown) [A3-348] | 100 | 90 | 100 | 100 | – | – | – | – | – |
| CC(=O)NCc1cc(F)c(N2CCC(c3cc(Cl)c(Cl)c(Cl)c3)(C(F)(F)F)C2O)nc1Cl (stereo not shown) [A3-366] | 100 | 98 | – | – | – | – | – | – | – |
| CCC(=O)NCc1cc(F)c(N2CCC(c3cc(Cl)c(Cl)c(Cl)c3)(C(F)(F)F)C2O)nc1Cl (stereo not shown) [A3-367] | 100 | 90 | – | – | – | – | – | – | – |
| CCC(=O)NCc1cc(F)c(N2CCC(c3cc(C(F)(F)F)cc(C(F)(F)F)c3)(C(F)(F)F)C2O)nc1Cl (stereo not shown) [A3-378] | 100 | – | 100 | – | – | – | – | 90 | 98 |
| CSCC(=O)NCc1cnc(N2CCC(c3cc(C(F)(F)F)cc(C(F)(F)F)c3)(C(F)(F)F)C2O)nc1C(F)(F)F (stereo not shown) [A4-31] | – | – | – | – | 100 | 100 | 100 | – | – |
| C[S+]([O-])CC(=O)NCc1cnc(N2CCC(c3cc(C(F)(F)F)cc(C(F)(F)F)c3)(C(F)(F)F)C2O)nc1C(F)(F)F (stereo not shown) [A4-32] | – | – | – | – | 100 | 100 | 100 | – | – |
| CS(=O)(=O)CC(=O)NCc1cnc(N2CCC(c3cc(C(F)(F)F)cc(C(F)(F)F)c3)(C(F)(F)F)C2O)nc1C(F)(F)F (stereo not shown) [A4-33] | – | – | – | – | 100 | 100 | 100 | – | – |
| CCC(=O)NCc1cnc(N2CCC(c3cc(Cl)c(Cl)c(Cl)c3)(C(F)(F)F)C2O)nc1C(F)F (stereo not shown) [A4-216] | 100 | – | – | 100 | – | 100 | – | – | – |
